Counter-ions that a name gives are not always drawn.

Sequence of recombinant sEH (soluble epoxide hydrolase, EPHX2) (P34913 whole entry): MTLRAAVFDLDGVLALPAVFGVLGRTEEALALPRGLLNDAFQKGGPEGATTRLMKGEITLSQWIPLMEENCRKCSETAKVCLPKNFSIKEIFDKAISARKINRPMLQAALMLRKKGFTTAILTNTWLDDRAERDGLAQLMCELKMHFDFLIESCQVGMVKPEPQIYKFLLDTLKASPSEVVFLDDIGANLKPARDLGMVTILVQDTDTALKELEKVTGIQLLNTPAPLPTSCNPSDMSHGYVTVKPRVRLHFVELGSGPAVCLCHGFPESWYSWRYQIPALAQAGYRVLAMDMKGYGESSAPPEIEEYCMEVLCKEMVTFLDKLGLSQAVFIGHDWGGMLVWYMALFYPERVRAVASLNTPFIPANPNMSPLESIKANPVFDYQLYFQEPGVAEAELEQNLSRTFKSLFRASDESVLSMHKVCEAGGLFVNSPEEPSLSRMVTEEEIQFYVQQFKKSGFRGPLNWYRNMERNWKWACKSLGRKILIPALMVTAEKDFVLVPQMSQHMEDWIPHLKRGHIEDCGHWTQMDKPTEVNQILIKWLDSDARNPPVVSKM

The first assay deals with recombinant sEH (soluble epoxide hydrolase, EPHX2) (Homo sapiens (Human), UniProt P34913). Kind of assay: biochemical fluorometric sEH inhibition assay with Phome substrate. Conditions: recombinant sEH purified from Sf9 insect cells, 2 nM sEH, 5 μM Phome, 60 minutes at 30° C. In short, it runs like this:
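Human sEH expressed in Sf9 cells (2 nM final) pre-incubated 15 min at 30 °C with compound (0.0001-10 μM), then 5 μM Phome added for 60 min at 30 °C in 25 mM Hepes with 0.01% albumin. Fluorescent 6-methoxy-2-naphthaldehyde read before substrate addition and at the end; IC50 from % inhibition.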
Consider `Cc1noc(C)c1C(=O)N1CCN(Cc2ccc(C(=O)NCc3ccccc3OC(F)(F)F)s2)CC1` [Example 122], for which the IC50 (commonly the point on the concentration scale where inhibition reaches its midpoint) turned out to be 1.74 nM.

Turning to `COc1ncccc1C(=O)N1CCN(Cc2ccc(C(=O)NCc3ccccc3C(F)(F)F)s2)CC1` [Example 57], the IC50 is 1.13 nM.

As to `O=C(NCc1ccc(Cl)cc1Cl)c1cnc(CN2CCN(C(=O)c3ccc[nH]c3=O)CC2)s1` [Example 178], the IC50 was determined as 58.6 nM.

Regarding `CN(C)CCC(=O)N1CCN(Cc2ncc(C(=O)NCc3ccc(Cl)cc3Cl)s2)CC1` [Example 199], the half-inhibitory concentration (IC50) was found to be 208 nM.

Consider `CSCCC(=O)N1CCN(Cc2ncc(C(=O)NCc3ccc(Cl)cc3Cl)s2)CC1` [Example 164], for which the IC50 amounted to 11.4 nM.

Take `O=C(NCc1ccccc1C(F)(F)F)c1ccc(CN2CCN(C(=O)C3Cc4ccccc43)CC2)s1` (stereo not shown) [Example 6]: the IC50 is 0.528 nM.

With `O=C(NCc1ccc(Cl)cc1Cl)c1ccc(CN2CCN(C3CCC3)CC2)s1` [Example 27], the IC50 came out at 0.803 nM.

For the molecule `COc1cc(CNC(=O)c2ccc(CN3CCN(C(=O)c4nc(F)ccc4F)CC3)s2)ccn1` [Example 149, 5-[4-(3,6-Difluoro-pyridine-2-carbonyl)-piperazin-1-ylmethyl]-thiophene-2-carboxylic acid (2-methoxy-pyridin-4-ylmethyl)-amide], the IC50 was 8.2 nM.

`Cc1cc(=O)oc(C)c1C(=O)N1CCN(Cc2ccc(C(=O)NCc3ccc(Cl)cc3F)s2)CC1` [Example 60, 5-[4-(2,4-Dimethyl-6-oxo-6H-pyran-3-carbonyl)-piperazin-1-ylmethyl]-thiophene-2-carboxylic acid 4-chloro-2-fluoro-benzylamide]: the IC50 was 1.1 nM.

In the case of `O=C(NCc1ccccc1C(F)(F)F)c1ccc(CN2CCN(C(=O)[C@@H]3C[C@H]3c3ccccc3)CC2)s1` [Example 76], the 50% inhibitory concentration (IC50) was determined as 2.53 nM.

Regarding `CC[C@@H](O)C(=O)N1CCN(Cc2ncc(C(=O)NCc3ccc(Cl)cc3Cl)s2)CC1` [Example 179], the concentration for half-maximal inhibition (IC50) was determined as 24.1 nM.

Consider `Cc1cncc(N2CCN(Cc3ccc(C(=O)NCc4ccccc4OC(F)(F)F)s3)CC2)n1` [Example 39], for which the half-maximal inhibitory concentration (IC50) was determined as 2.75 nM.

With `O=C(NCc1ccc(Cl)cc1Cl)c1ccc(CN2CCN(C(=O)c3ccc(F)cc3Cl)CC2)s1` [Example 43], the half-inhibitory concentration (IC50) came out at 2.74 nM.

As for `Cc1c(C(=O)N2CCN(Cc3ccc(C(=O)NCCC(C)C)s3)CC2)oc2ccc(Br)cc12` [Example 12], the IC50 is 25.4 nM.

For the molecule `O=C(NCc1ccc(Cl)cc1Cl)c1ccc(CN2CCN(C(=O)C3(c4ccccc4)CC3)CC2)s1` [Example 58], the IC50 came out at 1.17 nM.

`CC(C(=O)N1CCN(Cc2ccc(C(=O)NCc3ccccc3OC(F)(F)F)s2)CC1)N(C)C` (stereo not shown) [Example 138]: the IC50 amounted to 6.27 nM.

As for `O=C(NCc1ccccc1C(F)(F)F)c1ccc(CN2CCN(C(=O)C3(c4ccccc4)CC3)CC2)s1` [Example 75], the IC50 worked out at 2.55 nM.

With `O=C(NCc1ccccc1OC(F)(F)F)c1ccc(CN2CCN(C(=O)c3c[nH]cnc3=O)CC2)s1` [Example 107], the 50% inhibitory concentration (IC50) stood at 2.26 nM.

Regarding `O=C(NCc1ccccc1OC(F)(F)F)c1ccc(CN2CCN(C(=O)[C@@H]3CCC[C@@H]3O)CC2)s1` [Example 94], the IC50 came out at 1.5 nM.

Regarding `O=C(NCc1ccccc1OC(F)(F)F)c1ccc(CN2CCN(C(=O)C3CC3)CC2)s1` [Example 141], the IC50 came out at 1.86 nM.

Regarding `CCn1nc(C)c(Br)c1C(=O)N1CCN(Cc2ccc(C(=O)NCCC(C)C)s2)CC1` [Example 99], the IC50 was found to be 1.53 nM.

Regarding `O=C(NCc1ccccc1OC(F)(F)F)c1ccc(CN2CCN(c3cnccn3)CC2)s1` [Example 73], the IC50 amounted to 2.59 nM.

As to `COCCC(=O)N1CCN(Cc2ccc(C(=O)NCc3ccccc3OC(F)(F)F)s2)CC1` [Example 116], the IC50 turned out to be 1.6 nM.

For `NC1(C(=O)N2CCN(Cc3ccc(C(=O)NCc4ccccc4OC(F)(F)F)s3)CC2)CCC1` [Example 143], the IC50 was found to be 1.85 nM.

On to `O=C(NCc1ccccc1C(F)(F)F)c1ccc(CN2CCN(C(=O)Cc3ccccc3Cl)CC2)s1` [Example 3], for which the IC50 was determined as 0.407 nM.

Regarding `O=C(NCc1ccc(Cl)cc1Cl)c1cnc(CN2CCN(C(=O)CN3CCCC3=O)CC2)s1` [Example 168], the IC50 came out at 77.9 nM.

Turning to `O=C(NCc1ccccc1C(F)(F)F)c1ccc(CN2CCN(C(=O)c3cscc3Br)CC2)s1` [Example 18], the half-inhibitory concentration (IC50) turned out to be 0.678 nM.

On to `COc1ncccc1C(=O)N1CCN(Cc2ccc(C(=O)NCc3ccc(Cl)cc3Cl)s2)CC1` [Example 7], for which the IC50 worked out at 0.524 nM.

As for `CC(O)C(=O)N1CCN(Cc2ccc(C(=O)NCc3ccc(C#N)cc3Cl)s2)CC1` (stereo not shown) [Example 61], the IC50 worked out at 1.18 nM.

For the molecule `CC(C)[C@@H](O)C(=O)N1CCN(Cc2ccc(C(=O)NCc3ccccc3OC(F)(F)F)s2)CC1` [Example 101], the IC50 was 2.28 nM.

As for `O=C(NCc1ccc(Cl)cc1Cl)c1ccc(CN2CCN(C(=O)[C@@H]3C[C@H]3c3ccccc3)CC2)s1` [Example 153], the IC50 was found to be 2.56 nM.

For `Cc1cnc(C)c(N2CCN(Cc3ccc(C(=O)NCc4ccccc4OC(F)(F)F)s3)CC2)n1` [Example 26], the IC50 amounted to 2.75 nM.

For the molecule `Cc1cc(N2CCN(Cc3ccc(C(=O)NCc4ccc(Cl)cc4Cl)s3)CC2)cc(C)n1` [Example 120, 5-[4-(2,6-Dimethyl-pyridin-4-yl)-piperazin-1-ylmethyl]-thiophene-2-carboxylic acid 2,4-dichloro-benzylamide], the IC50 came to 5.3 nM.

As to `Cc1cccnc1N1CCN(Cc2ccc(C(=O)NCc3ccc(Cl)cc3Cl)s2)CC1=O` [Example 105], the IC50 worked out at 2.33 nM.

Consider `CC1(C)SCN[C@H]1C(=O)N1CCN(Cc2ccc(C(=O)NCc3ccccc3OC(F)(F)F)s2)CC1` [Example 110], for which the IC50 was 2.16 nM.

`Cc1cc(=O)oc(C)c1C(=O)N1CCN(Cc2ncc(C(=O)NCc3ccc(Cl)cc3Cl)s2)CC1` [Example 162]: the IC50 is 12.2 nM.

Take `NC1(C(=O)N2CCN(Cc3ccc(C(=O)NCc4ccccc4OC(F)(F)F)s3)CC2)CCOCC1` [Example 145]: the IC50 came to 1.88 nM.

Turning to `Cc1cc(=O)oc(C)c1C(=O)N1CCN(Cc2ccc(C(=O)NCc3cccc(Cl)c3Cl)s2)CC1` [Example 91], the IC50 was determined as 1.42 nM.

Take `CCc1oncc1C(=O)N1CCN(Cc2ccc(C(=O)NCc3ccc(Cl)cc3Cl)s2)CC1` [Example 90]: the IC50 turned out to be 1.43 nM.

The assay is the same for the next values; noted with them: recombinant sEH purified from Sf9 insect cells, 2 nM sEH, 5 μM Phome, 60 minutes at 30° C.; trifluoroacetate.
With `CC(O)C(=O)N1CCN(Cc2ccc(C(=O)NCc3ccccc3OC(F)(F)F)s2)CC1` (stereo not shown) [Example 54, 5-[4-(2-Hydroxy-propionyl)-piperazin-1-ylmethyl]-thiophene-2-carboxylic acid 2-trifluoromethoxy-benzylamide, trifluoroacetate], the IC50 is 0.976 nM.

Values taken from patent US9776991B2, “Thienomethylpiperazine derivatives as inhibitors of soluble epoxide hydrolase” (SANOFI, priority 2013, dated 2017).
